The test system of this experiment is BALB/c mice MPTP induced tremor. The experiment is described as follows: MPTP-induced tremor in BALB/c mice. It counts as in vivo. Conditions: extract 25 or 50 mg/kg, apomorphine 3 mg/kg. As to the method:
Animals: Male adult mice, C57BL/6 and BALB/c strain (FEEPS) were used and maintain with water and foot ad libitum under controlled environment.
Treatments in BALB/c: MPTP (1-methyl-4-phenyl-1,2,3,6-tetrahydropyridine) 60 mg/kg (2×30 mg/kg) was administered intraperitonially (i.p.), twice, 16 h apart. Saline, DMSO 20%, Ptychopetalum olacoides extract 50 mg/kg (2×25 mg/kg), POEE 25 mg/kg (2×12.5 mg/kg) and apomorphine 3 mg/kg (2×1.5 mg/kg) were given 30 min before each MPTP administration. The animals received the first injections at 17:00 h and the second at 09:00 h the next day. The volume of injection was […] body weight. N=6.
Tremor in C57BL/6 and in BALB/c: Tremors were observed immediately after the administration of the second MPTP dose, with animals placed in a clear Plexiglas box (20 cm×20 cm×20 cm) for 45 min; tremor scores were noted every 3 min, with the highest score considered for the period. […]

As for `CN1CCc2cccc3c2[C@H]1Cc1ccc(O)c(O)c1-3` [apomorphine], the total tremor duration result was “not affected”.

The record behind these values is patent publication US20110229553A1, “Plant Extract with Pharmacological Profile for Treating or Preventing Diseases, Dysfunctions and Disorders of the Central Nervous System, Neurodegenerative Disorders and Sequel from Vascular Dementia” (priority 2010, published 2011).
